“And” between values parts separate entries of the source, which are not always exact repeats. Equal values may be shown once.
How the values were obtained:
[1] = system: keratin; assay: Binding of Alexa Fluor 647-marked keratin to peptides attached to glass, microarray scanner intensity (Example 4); parameters: species or system human; details: peptide 15 fmol/mm2 on glass; keratin 1 μg/mL, 2 hours at 37° C.; three replicas
Method: In order to assess the interactions between the keratin and some peptides, a keratin solution was prepared. This procedure was performed by immersing African hair, acquired from the International Hair Importers and Products, Inc. (New York), in a solution containing 8 M urea, 0.2 M sodium dodecyl sulfate and 0.5 M sodium bisulfate. The mixture was heated to 50° C. for 24 h in a shaker bath. The solution was dialyzed for several days against double-distilled water. The keratin solution was then concentrated using AMICON with a 3 kDa cut-off.
The reaction was incubated for 1 h30 min at room temperature and in the dark.
The keratin was then diluted to 1 μg/mL in blocking buffer (3% BSA in tris-buffered saline (TBS) with 0.05% Tween 20).
After incubation, the glasses were rinsed in successive washing solutions: TBS+0.1% Tween 20 and blocking buffer with 3% BSA in TBS+0.1% Tween 20, for 3 minutes in each solution.
The imaging of the glasses was performed in Agilent G2565CA Microarray Scanner System. Three replicas of the each peptide incubation were performed and analyzed.

[2] = Mechanical tests (Young modulus, maximum load, stretching) of relaxed (reduced) human hair after peptide treatment (Example 3)
Method: The formulation was tested in different hair types: • virgin hair washed, with the cuticle intact and absence of chemical damages; • hair after reduction treatment, at 37° C. in phosphate buffer at pH=8, with 3M GndHCl and 0.05M DTT for 2 hours.
For the treatment with the peptide SEQ ID NO: 412, concentrations of 0.01% (w/w) were used.

[3] = Mechanical resistance test (Young modulus) of bleached human hair after direct application of peptide (Example 2); details: peptide treatment after bleaching
Method: The hair was supplied from International Hair Importers and Products, Inc. (New York). Hair fibers were pre-treated by bleaching. The formulation was tested in different hair types: • virgin hair washed, with the cuticle intact and absence of chemical damages; • hair after 8 bleaching treatments, at 50° C. in 0.1 M Na2CO3/NaHCO3 buffer, at pH=9, 10% H2O2, for 1 hour.
The incorporation of the peptides was performed by direct application in the hair surface. The mechanical resistance tests were performed after the treatment of the hair with the peptide.
The measurements of mechanical resistance were performed using a cell with 2.5 N maximum load and a deformation rate of 1.5 mm/min. Each hair was individually mounted in the tensile jig by means of a paper template with a fixed gauge length of 20 mm.

[4] = Mechanical test (Young modulus) of bleached human hair treated with serum or mask, with and without peptide (Example 1); details: formulations containing the peptide vs without peptide
Method: The tests were performed with in human hair after 8 treatments of bleaching, at 50° C. in 0.1 M Na2CO3/NaHCO3 buffer, at pH=9, 10% H2O2, for 1 hour.
Each of the formulations was tested with and without the peptide sequence ID NO:5, which contains in the sequence 15% of cysteine.
The hair mask was applied to the hair after 8 bleaching treatments, being left to act for 15 minutes, mimicking the procedure indicated in commercial masks. Posteriorly, the hair was washed. The serum was applied to the hair after 8 bleaching treatments, being left to act for 1 hour at 37° C. Posteriorly, the hair was not washed, as in typical commercial procedures the serum should be applied in dry hair. The hair was also tested after 5 applications.
After the treatment, mechanical tests were performed, using a cell with 2.5 N maximum load and a deformation rate of 1.5 mm/min. Each hair was individually mounted in the tensile jig by means of a paper template with a fixed gauge length of 20 mm.

Intensity level (average ± standard deviation), normalized [1]	Sequence	also measured
0.990±0.014	ASCVSLLCRP (listed as Homo sapiens) [SEQ.ID NO:179]	
1 and 1.000 ± 0.000	CEPAICEPSC (listed as Homo sapiens) [SEQ.ID NO:432]	
	CGPSPPCITT (listed as Homo sapiens) [SEQ.ID NO:412]	hair stretching (average) ([2]; relaxed hair after peptide treatment): 72%; maximum load test, maximum of resistance ([2]; relaxed hair fiber after peptide treatment): 126 MPa; Young modulus (average) ([2]; relaxed hair fiber after peptide treatment at 0.01%): 4190 MPa
1 and 1.000 ± 0.000	CLPCLPAASC (listed as Homo sapiens) [SEQ.ID NO:75]	
	GGVCGPSPPC (listed as Homo sapiens) [SEQ.ID NO:409]	Young modulus [3]: 5649±1022 MPa
	GVCGPSPPCI (listed as Homo sapiens) [SEQ.ID NO:5]	mechanical resistance of the damaged hair [4]: increase in mechanical resistance
1 and 1.000 ± 0.000	SCCAPVYCCK (listed as Homo sapiens) [SEQ.ID NO:951]	

Sequence	Intensity level (average ± standard deviation), normalized [1]	also measured
CISSSCCPSCC (listed as Homo sapiens) [SEQ.ID NO:1108]	1 and 1.000 ± 0.000	
CQCSCCKPYCS (listed as Homo sapiens) [SEQ.ID NO:1131]	1 and 1.000 ± 0.000	
